B1: MAGE-A1 recombinant protein: MAGE-A1 recombinant protein used to load autologous EBV-B cells (protein, UniProt P43355 1-309, looked up)
Melanoma-associated antigen 1: MSLEQRSLHCKPEEALEAQQEALGLVCVQAATSSSSPLVLGTLEEVPTAGSTDPPQSPQGASAFPTTINFTRQRQPSEGSSSREEEGPSTSCILESLFRAVITKKVADLVGFLLLKYRAREPVTKAEMLESVIKNYKHCFPEIFGKASESLQLVFGIDVKEADPTGHSYVLVTCLGLSYDGLLGDNQIMPKTGFLIIVLVMIAMEGGHAPEEEIWEELSVMEVYDGREHSAYGEPRKLLTQDLVQEKYLEYRQVPDSDPARYEFLWGPRALAETSYVKVLEYVIKVSARVRFFFPSLREAALREEEEGV

Assays:
7002 CD4+ clone 2 = experiment: IFN-γ production by CD4+ clone 2 stimulated with peptide- or protein-pulsed EBV-B cells; type: cell-based, human; details: for IFN-γ production by clone 2: HLA-DR13 EBV-B cells; for recognition of short peptide by clone 2: conclusion from Table V
Experimental: (§1) In order to confirm the efficacy of this protocol, dendritic cells were fed with the MAGE-3 protein, using conditions described above, to stimulate autologous CD4^+ T lymphocytes from hemochromatosis patient LB1158 or from melanoma patient 7002. After four restimulations, the specific production of IFN-γ by an aliquot of each of the microcultures stimulated with the autologous EBV-B cells loaded with MAGE-A3 were tested on day 35 for patient LB1158 and day 37 for patient 7002. For each individual, one positive microculture was cloned using autologous EBV-B cells as stimulating cells, either retrotransduced with MFG Ii MAGE-A3 for LB1158, or fed with protein MAGE-A3 for patient 7002. […] Specifically, autologous EBV-B cells were incubated for 20 h in the presence of 20 μg/ml of recombinant His-MAGE-A3 protein. Clone 22 (2500 cells) was incubated overnight with 5000 MAGE-A3 loaded EBV-B cells in round botton microwells in the presence or absence of monoclonal antibodies which recognize HLA-A,B,C (W6/32) or HLA-DR (2B6). IFN-γ secretion was measured after 20 h by ELISA (FIG. 15A).
(§2) Peptides corresponding to parts of MAGE-A3 (e.g., MAGE107-122, MAGE111-126, MAGE115-130, MAGE119-134) were tested for recognition by clone 2 and 22. HLA-DR13 EBV-B cells were pulsed for 2 h with different concentrations of these peptides. Clones 2 and 37 (2500 cells) were incubated with 5000 peptide pulsed cells in round-bottomed microwells for 20 h and assayed for IFN-γ production.
(§3) Autologous or allogeneic EBV-B cells were pulsed for 2 h with 1 μg/ml MAGE-A3119-134 peptide, and then washed. Clones 2 or 22 were incubated with 5000 peptide-pulsed EBV-B cells in round-bottomed microwells for 20 h and the clones' reactivity to the EBV-B cells was measured by ELISA as IFN-γ secretion. Experiments were performed in triplicate.
(§4) Unlike HLA-class I-restricted peptides, class II-restricted peptides usually vary in length and tolerate extensions at both the amino and carboxy termini, because they are not fixed by their ends in the groove. It is therefore difficult to define precisely the length of the antigenic peptide. Therefore a large number of MAGE-A3 peptides were tested at different concentrations (Tables IV and V). […] 2500 cells of clone 37 were then cocultured for 20 h in round-bottomed microwells with 5000 peptide-pulsed cells. IFN-γ released in the supernatant of the cocultures was measured in an ELISA assay. The experiments were performed in triplicate. […] Clones 2 and 22 (2500 cells) were then cocultured for 20 h in round-bottomed microwells with 5000 peptide-pulsed cells. IFN-γ released in the supernatant of the cocultures was measured in an ELISA assay. The experiments was performed twice in duplicates.

LB1158 CD4+ clone 22 = experiment: IFN-γ production by CD4+ clone 22 stimulated with peptide- or protein-pulsed EBV-B cells; type: cell-based, human; details: for IFN-γ production by clone 22: HLA-DR13 EBV-B cells; for recognition of short peptide by clone 22: conclusion from Table V
Experimental: as §1, §2, §3, §4

[1] = peptide concentration 100 ng/ml
[2] = peptide concentration 300 ng/ml
[3] = peptide concentration 1000 ng/ml

Molecule	IFN-γ production by clone 2 (7002 CD4+ clone 2; peptide concentration 1 ng/ml) [pg/mL]	IFN-γ production by clone 2 (7002 CD4+ clone 2; peptide concentration 3 ng/ml) [pg/mL]	IFN-γ production by clone 2 (7002 CD4+ clone 2; peptide concentration 10 ng/ml) [pg/mL]	IFN-γ production by clone 2 (7002 CD4+ clone 2; peptide concentration 30 ng/ml) [pg/mL]	IFN-γ production by clone 2 (7002 CD4+ clone 2; [1]) [pg/mL]	IFN-γ production by clone 2 (7002 CD4+ clone 2; [2]) [pg/mL]	IFN-γ production by clone 2 (7002 CD4+ clone 2; [3]) [pg/mL]	IFN-γ production by clone 22 (LB1158 CD4+ clone 22; peptide concentration 1 ng/ml) [pg/mL]	IFN-γ production by clone 22 (LB1158 CD4+ clone 22; peptide concentration 3 ng/ml) [pg/mL]	IFN-γ production by clone 22 (LB1158 CD4+ clone 22; peptide concentration 10 ng/ml) [pg/mL]	IFN-γ production by clone 22 (LB1158 CD4+ clone 22; peptide concentration 30 ng/ml) [pg/mL]	IFN-γ production by clone 22 (LB1158 CD4+ clone 22; [1]) [pg/mL]	IFN-γ production by clone 22 (LB1158 CD4+ clone 22; [2]) [pg/mL]	IFN-γ production by clone 22 (LB1158 CD4+ clone 22; [3]) [pg/mL]	recognition of short peptide by clone 2 (7002 CD4+ clone 2)	recognition of short peptide by clone 22 (LB1158 CD4+ clone 22)	stimulation of clone 2 by protein-loaded autologous EBV-B cells (7002 CD4+ clone 2)	stimulation of clone 22 by protein-loaded autologous EBV-B cells (LB1158 CD4+ clone 22)
FLLLKYRAREP (listed as Homo sapiens)	0	0	0	0	85	0	23	0	0	1	7	6	7	30				
FLLLKYRAREPV (listed as Homo sapiens)	0	4	78	216	821	1632	2667	0	3	13	132	383	746	1353				
FLLLKYRAREPVT (listed as Homo sapiens)	114	370	1437	2003	2951	2860	3079	291	584	1099	1635	1510	1834	2183	well recognized	well recognized		
FLLLKYRAREPVTK (listed as Homo sapiens)	0	0	0	0	85	0	0	0	0	1	10	28	115	453				
FLLLKYRAREPVTKA (listed as Homo sapiens)	245	865	1753	2713	2871	3354	3314	283	1294	1619	1775	1854	1965	2180				
KYRAREPVTKAE (listed as Homo sapiens)	0	0	0	0	0	0	50	0	5	0	5	16	135	542				
LKYRAREPVTKAE (listed as Homo sapiens)	0	0	79	386	1324	2544	2755	0	25	223	567	1029	1475	2004				
LLKYRAREPVTKAE (listed as Homo sapiens)	40	303	1419	2012	2918	3186	3078	262	638	1073	1651	1736	1826	2225	well recognized	well recognized		
LLLKYRAREPVTKAE (listed as Homo sapiens)	169	639	2028	2532	2857	3124	3033	718	965	1440	1832	1679	1739	2214				
B1																	stimulated	stimulated
